Structures are written as SMILES. Read-outs that look alike come from different tables or passages of the source.

Usually IC50 stands for the concentration at which inhibition is half-maximal.

One assay concerns CD11b. Briefly: Effect on CD11b expression in human histiocytic leukemia cell line, U937 cells (PDB-induced). In kind it is cell-based. The following applies: U-937, 72 h, read-out: Inhibitory effect on CD11b expression (IC50). As to the method:
Effect on CD11b expression human histiocytic leukemia cell line, U937 cells
Effect on the expression of CD11b antigen, which is the α chain of an adhesion molecule, Mac-1 expressing on the surface of leukocytgic cells, was investigated. U937 cells were suspended in RPMI1640 medium containing 20% fetal calf serum (FCS), plated with phorbol 12,13-dibutyrate (PDB, 10 ng/ml) into 96-well filtration plates, and cultured for 3 days at 37° C. in 5% CO2. After the cells were washed once with RPMI1640 medium, rat anti-human CD11b antibody (2 μg/ml) was added to each well and the plates were incubated for 1 hr on ice. After the cell were washed twice, peroxidase-conjugated anti-rat immunoglobulin antibody (1 μg/ml) was added, and the cells were incubated for 1 hr on ice. After the cells were washed 3 times, substrate for peroxidase (o-phenylenediamine) was added. After the plates were stood for 15 min at room temperature, absorbance at 490 nm was measured with a 96-well microplate reader and was regarded as a indicator of CD11b antigen expression.

The test system of another assay is VCAM-1. The assay can be described thus: Inhibitory effect on TNF-α-induced expression of VCAM-1 in HUVECs. In kind it is cell-based. The following applies: Homo sapiens, HUVEC, read-out: Inhibitory effect (IC50) on CAM-1 expression. The protocol: (§1) Inhibitory effect on expression of VCAM-1 and ELAM-1 in human umbilical vein-derived endothelial cells (HUVECs)
(§2) HUVECs were suspended in 199 medium containing 20% FCS, 20 μg/ml endothelial cell growth factor derived from bovine brain, and 100 μg/ml heparin, plated into 96-well microculture plates coated with collagen, and cultured at 37° C. in 5% CO2. When cells were grown to confluence, the cells received tumour necrosis factor (TNF)-α (20 U/ml for VCAM-1 expression, 100 U/ml for ELAM-1 expression) and cultured for 5 hr. After the cells were washed once with 199 medium, mouse anti-human VCAM-1 monoclonal antibody (2 μg/ml) or rat anti-human ELAM-1 monoclonal antibody (2 μg/ml) was added, and the cells were incubated for 1 hr at room temperature. After the cells were washed twice, peroxidase-conjugated anti-mouse immunoglobulin antibody or anti-rat immunoglobulin antibody was added, and the cells were incubated for 1 hr at room temperature. After the cells were washed 3 times, 2,2'-azino-bis(3-ethylbenzothiazolone-6-sulfonic acid) was added. After the plates were stood for 15 min at room temperature, absorbance at 405 nm with a reference wave length of 490 nm was measured with a 96-well microplate reader and was regarded as a indicator of VCAM-1 or ELAM-1 expression.

For a further assay, the system named is ELAM-1. Briefly: Inhibitory effect on TNF-α-induced expression of ELAM-1 in HUVECs. Type of assay: cell-based. The following applies: Homo sapiens, HUVEC, read-out: Inhibitory effect (IC50) on ELAM-1 expression. As to the method:
as §1, §2

For assay [1], the system named is oxazolone-induced ear edema. The assay can be described thus: Effect on oxazolone-induced ear edema in mice. Type of assay: in vivo. The following applies: sensitized mice, 24 hr after challenge. The protocol:
Effect on oxazolone-induced ear edema in mice.
Mice were sensitized by applying 50 μl of oxazolone solution (50 mg/ml in acetone) to their shaved abdomen on day 0. On day 7, 5 μl of oxazolone solution was applied to each surface of the right ear. After 24 hr (day 8), the right and left ears were cut off with a puncher of 6 mm in diameter and weighed with an electronic reading balance. The difference in weight between the oxazolone-treated ear (right) and untreated ear (left) was taken to reflect the extent of ear edema. Test compounds were suspended in 0.5% hydroxypropylmethycellulose solution and administered p.o. (0.1 ml/10 g body weight) on days 0 to 4 (once a day) and day 7 (twice a day).

For assay [2], the system named is thioglycollate (TG) medium-induced infiltration of leukocytes. Briefly: Effect on thioglycollate (TG) medium-induced infiltration of leukocytes. To be noted: TG medium 1 ml, day 4. Type of assay: in vivo, BALB/c mice. As to the method: Effect on thioglycollate (TG) medium-induced infiltration of leukocytes
One ml of TG medium was injected into peritoneal cavity of BALB/c mice on day 0. On day 4, leukocytes infiltrating into the peritoneal cavity were collected with 3 ml of phosphatebuffered saline containing 0.02% EDTA and the density of leukocytes (cells/ml) was counted with an automatic blood cell counter. Total number of leukocytes (X) was calculated from the density of leukocytes (A) with the following formula.
Test compounds were suspended in 0.5% hydroxypropylmethyl-cellulose solution and administered p.o. (0.1 ml/10 g body weight) on days 0 to 3.

Another assay concerns glomerulonephritis. The assay can be described thus: Effect on glomerulonephritis in mice (anti-GBM antiserum). Type of assay: in vivo, female C57BL/6 mice. The following applies: 12 days after anti-GBM antiserum, 0-5 points. As to the method:
Effect on glomerulonephritis in mice
Rabbit immunoglobulin G solution (4 mg/ml in saline) was mixed with Freund's complete adjuvant at a ratio of 1:1 and the emulsion was prepared. The emulsion was injected into peritoneal cavity of female C57BL/6 mice (0.25 ml/mouse). After 5 days, rabbit anti-mouse glomerular basement membrane (GBM) antiserum obtained by the method of Nagai et al. (Japan. J. Pharmacol., 32, 1117, 1982) was administered i.v. (0.08 ml/mouse). […] Test compounds were suspended in 0.5% hydroxypropylmethylcellulose (HPMC) solution and administered p.o. (0.1 ml/10 g body weight) for 13 days beginning on the day of anti-GBM ant-serum injection.

The test system of assay [3] is antigen induced Eosinophils accumulation into lungs. Briefly: Effect on antigen induced eosinophils accumulation into lungs in actively sensitized guinea pigs. In kind it is in vivo, male Dunkin-Hartley guinea pigs. To be noted: 30 mg/kg p.o., BALF 24 h after antigen exposure. As to the method: Effect on antigen induced Eosinophils accumulation into lungs in actively sensitized guinea pigs
Male Dunkin-Hartley guinea pigs (4W, Japan SLC, Inc.) were used throughout this study.
Sensitized animals were orally administered (p.o.) with compound or solvent (0.5% hydroxymethylcellulose) 30 min. before final sensitization, 30 min. before antigen exposure and 4.5 h after antigen exposure.
Egg albumin (EA, 10 μg) was added to AI(OH)3 (10 mg) in sterile physiological saline (0.5 ml) and mixed in a blender. This mixture was injected intraperitoneally into recipients. And after 14 days and 21 days, the procedure was repeated. Seven days after the final sensitization procedure, Mepyramine 10 mg/kg was injected intraperitoneally into the sensitized animals. After 30 min., the animals were exposed to aerosol of 1% EA in sterile physiological saline for 5 min.
24 h after antigen exposure, the animals were killed by exsanguination and tracheae were cannulated. And the lungs were lavaged three times with 10 ml of sterile physiological saline. Lavage fluid (BALF) was centrifuged (800 rpm for 10 min. at 4° C.) and the cell pellet was resuspended in 10 ml of sterile physilolgical saline and total cell numbers in BALF were counted in a hemocytometer (MEK 4200, Nihon-kohden, Ltd.). Differential cell counts were made from centrifuged preparations stained with May-Giemsa stain.

The next assay deals with TNBS-induced colitis. Briefly: Effect on TNBS-induced colitis model in rats (intrarectal administration). The following applies: 7 days. In kind it is in vivo, SD rats. As to the method: Effect on trinitrobenzenesufonec acid (TNBS)-induced colitis model in rats.
Colitis was induced by intrarectal injection of TNBS solution (60 mg/ml in 50% EtOH, 500 μl/rat) to SD rats. Seven days later, rats were sacrificed, and large intestine (8 cm from anus) was cut off and weighed. Myeloperoxidase (MPO) activity in the intestinal tissue was measured as follows and taken as an indicator of leukocyte infiltration: the intestinal tissue was homogenized and a cycle of freeze-thawing of the tissue was repeated 3 times. The supernatant obtained by centrifugation was assayed for MPO activity with substrate for peroxidase (o-phenylenediamine). MPO activity in the supernatant was calculated with the commercial MPO as a standard. The increases in intestinal weight and MPO activity as described above were taken as indicators of colitis. Test compounds were suspended in 0.5% hydroxypropylmethylcellulose solution and administered intrarectally (o.2 ml/rat) for 5 days beginning on the day of TNBS injection.

The test system of assay [4] is lipopolysaccharide (LPS)-induced adhesion of leukocytes. Briefly: Effect on lipopolysaccharide (LPS)-induced adhesion of leukocytes. In kind it is in vivo, BALB/c mice. The following applies: 6 hr after LPS. The source says:
Effect on lipopolysaccharide (LPS)-induced adhesion of leukocytes
It has been reported that, by the administration of LPS to mice, an adhesion molecule, Mac-1-dependent leukocyte adhesion is induced, the leukocytes infiltrate into lung, liver and so on, and in result the number of peripheral blood leukocytes reduces (Morisaki et al., Clin. Immunol. Immunopathol., 61, 365-375, 1991). The effect on LPS-induced leukocyte adhesion was investigated by taking the reduction of peripheral blood leukocytes as an indicator of leukocyte adhesion.
LPS solution (50 ng/ml in saline, 0,5 ml/mouse) was injected into peritoneal cavity of BALB/c mice on day 0. Six hr after the LPS injection, the number of peripheral blood leukocytes was counted with an automatic blood cell counter. Test compounds were suspended in 0.5% hydroxypropylmethylcellulose solution and administered p.o. (0.1 ml/10 g body weight) on days -4 to 0.

For the molecule `Cc1sc2c(c1C)C(c1ccc(Cl)cc1)=N[C@@H](CC(=O)NCCO)c1nnc(C)n1-2` [Example 2, (S)-N-(2-hydroxyethyl)-4-(4-chlorophenyl)-2,3,9-trimethyl-6H-thieno[3,2-f][1,2,4]triazolo[4,3-a][1,4]diazepine-6-acetamide 1/4 hydrate], the IC50 with CD11b (U937 cells, PDB 10 ng/ml, 3 days) was 150 nM; in the assay on VCAM-1 (HUVECs, TNF-α 20 U/ml, 5 hr), 37 nM; with ELAM-1 (HUVECs, TNF-α 100 U/ml, 5 hr) it was 79 nM. For the same molecule, the “Increase in ear weight (mean ± S.D.)” value in [1] (0.3 mg/kg p.o.) was 14.3 ± 1.5 mg; in assay [1] (1 mg/kg p.o.) it was 14.2 ± 0.4 mg. The “Total number of leukocytes (mean ± S.D.)” value is on record as 1064 ± 359 × 10^4 in [2] (0.03 mg/kg/day p.o.), 594 ± 302 × 10^4 in assay [2] (0.1 mg/kg/day p.o.) and 570 ± 203 × 10^4 in assay [2] (0.3 mg/kg/day p.o.). In addition, the “Score (mean ± S.D.) of protein level in urine” value in the assay on glomerulonephritis (1 mg/kg/day p.o.) was 3.25 ± 0.16; with glomerulonephritis (3 mg/kg/day p.o.), 2.44 ± 0.53. The Number of eosinophils in assay [3] is 11.8 ± 3.8 × 10^6.

Consider `Cc1sc2c(c1C)C(c1ccc(Cl)cc1)=N[C@@H](CC(=O)Nc1ccc(O)cc1)c1nnc(C)n1-2` [Example 3, (S)-N-(4-hydroxyphenyl)-4-(4-chlorophenyl)-2,3,9-trimethyl-6H-thieno[3,2-f][1,2,4]triazolo[4,3-a][1,4]diazepine-6-acetamide], for which the results for the “Intestinal weight (mean ± S.D.)” value in the assay on TNBS-induced colitis (0.01 mg/site intrarectally), in the assay with TNBS-induced colitis (0.1 mg/site intrarectally) and with TNBS-induced colitis (1 mg/site intrarectally) were 501.5 ± 78.3 mg, 472.0 ± 43.4 mg and 460.8 ± 52.3 mg, respectively. Besides, the “MPO activity (mean ± S.D.)” value turned out to be 0.716 ± 0.158 U/ml in the assay on TNBS-induced colitis (0.01 mg/site intrarectally), 0.654 ± 0.109 U/ml in the assay on TNBS-induced colitis (0.1 mg/site intrarectally) and 0.676 ± 0.172 U/ml with TNBS-induced colitis (1 mg/site intrarectally).

For `Cc1sc2c(c1C)C(c1ccc(Cl)cc1)=N[C@@H](CC(=O)Nc1ccc(N)cc1)c1nnc(C)n1-2` [Example 4, (S)-N-(4-aminophenyl)-4-(4-chlorophenyl)-2,3,9-trimethyl-6H-thieno[3,2-f][1,2,4]triazolo[4,3-a][1,4]diazepine-6-acetamide], the “Intestinal weight (mean ± S.D.)” value is on record as 490.8 ± 89.9 mg with TNBS-induced colitis (0.01 mg/site intrarectally), 488.1 ± 24.0 mg with TNBS-induced colitis (0.1 mg/site intrarectally) and 511.8 ± 98.5 mg in the assay with TNBS-induced colitis (1 mg/site intrarectally). For the same molecule, the “MPO activity (mean ± S.D.)” value in the assay with TNBS-induced colitis (0.01 mg/site intrarectally) is listed as 0.703 ± 0,313 U/ml; in the assay with TNBS-induced colitis (0.1 mg/site intrarectally), 0.511 ± 0.103 U/ml; in the assay with TNBS-induced colitis (1 mg/site intrarectally), 0.488 ± 0.103 U/ml.

Regarding `Cc1sc2c(c1C)C(c1ccc(Cl)cc1)=N[C@@H](CC(=O)Nc1cccnc1)c1nnc(C)n1-2.Cl` [Example 5, (S)-N-(3-pyridyl)-4-(4-chlorophenyl)-2,3,9-trimethyl-6H-thieno[3,2-f][1,2,4]triazolo[4,3-a][1,4]diazepine-6-acetamide hydrochloride], the IC50 worked out at 260 nM with CD11b, 4.5 nM with VCAM-1 (5 h) and 14 nM with ELAM-1 (5 h). Besides, the “Increase in ear weight (mean ± S.D.)” value came out at 15.2 ± 0.8 mg in assay [1] (1 mg/kg p.o.), 14.0 ± 0.6 mg in assay [1] (3 mg/kg p.o.) and 13.3 ± 0.5 mg in assay [1] (10 mg/kg p.o.). In addition, the “Total number of leukocytes (mean ± S.D.)” value in assay [2] (0.03 mg/kg/day p.o.) is listed as 1221 ± 239 × 10^4; in [2] (0.1 mg/kg/day p.o.) it was 990 ± 327 × 10^4; in assay [2] (0.3 mg/kg/day p.o.) it was 596 ± 165 × 10^4. Besides, the “Number of peripheral blood leukocytes (mean ± S.D.)” value is 46 ± 8 × 100/μl in [4] (1 mg/kg/day p.o.), 69 ± 18 × 100/μl in [4] (3 mg/kg/day p.o.) and 103 ± 16 × 100/μl in assay [4] (10 mg/kg/day p.o.). The “Score (mean ± S.D.) of protein level in urine” value is reported as 3.44 ± 0.88 in the assay on glomerulonephritis (1 mg/kg/day p.o.) and 2.22 ± 0.44 in the assay with glomerulonephritis (3 mg/kg/day p.o.).

Values taken from patent US5712274A, “Thienotriazolodiazepine compounds and their pharmaceutical use” (Yoshitomi Pharmaceutical Industries, Ltd., priority 1995, dated 1998).
